Values after ≈ are worked out from the molar mass of the structure shown.
Tests used:
[1] = tested on: Pseudomonas aeruginosa CVCC 3359 (PA); assay: MIC, microplate dilution method; format: cell-based; conditions: Gram-negative, Mueller-Hinton broth, 37 °C, 18–24 h, read-out: MIC PA
Description: (§1) According to microplate dilution method, all the prepared compounds were screened for their in vitro antibacterial activity. The investigation included three representative Gram-positive strains, including Staphylococcus aureus CICC 10384 (S. aureus), Staphylococcus albus CICC 20237 (S. albus) and methicillinresistant Staphylococcus aureus ATCC 43300 (MRSA), and two representative Gram-negative strains, including Escherichia coli CICC 10389 (E. coli) and Pseudomonas aeruginosa CVCC 3359 (PA). Harmine and cinnamic acid were used as reference drugs.
(§2) The antibacterial efficiency of all prepared compounds was determined using the microplate dilution method. All compounds were prepared into different concentrations of stock solution according to their solubility. The compounds were added to the 96 well plate and serially diluted in Mueller-Hinton broth. Three Gram-positive strains (S. aureus, S. albus and MRSA) and two Gram-negative strains (E. coli and PA) were cultivated and added to the 96 well plate. The initial concentration of bacteria should be higher than 10^5 CFU/mL. The samples were incubated at 37 °C for 18–24 h. The MIC was determined for compounds by observing change of clarity in the broth. The same procedure was repeated in triplicate.

[2] = tested on: Staphylococcus albus CICC 20237 (S. albus); assay: MIC, microplate dilution method; format: cell-based; conditions: Gram-positive; Mueller-Hinton broth, 37 °C, 18–24 h; read-out: MIC S. albus
Description: as §1, §2

[3] = tested on: Staphylococcus aureus CICC 10384 (S. aureus); assay: MIC, microplate dilution method; format: cell-based; conditions: Gram-positive, Mueller-Hinton broth, 37 °C, 18–24 h, read-out: MIC S. aureus
Description: as §1, §2

[4] = tested on: Escherichia coli CICC 10389 (E. coli); assay: MIC, microplate dilution method; format: cell-based; conditions: Gram-negative, Mueller-Hinton broth, 37 °C, 18–24 h, read-out: MIC E. coli
Description: as §1, §2

[5] = tested on: methicillinresistant Staphylococcus aureus ATCC 43300 (MRSA); assay: MIC, microplate dilution method; format: cell-based; conditions: Gram-positive, Mueller-Hinton broth, 37 °C, 18–24 h, read-out: MIC MRSA
Description: as §1, §2

Row | Structure (SMILES) | MIC [1] | MIC [2] | MIC [3] | MIC [4] | MIC [5] | melting point
1 | O=C(O)/C=C/c1ccccc1 [Cinnamic acid] | 1120 µg/mL (≈ 7590 µM) | 1120 µg/mL (≈ 7590 µM) | 1120 µg/mL (≈ 7590 µM) | 1120 µg/mL (≈ 7590 µM) | 1120 µg/mL (≈ 7590 µM) | 
2 | COc1ccc(/C=C/C(=O)OCCCn2c3cc(OC)ccc3c3ccnc(C)c32)cc1 [Compound 3a, 3-(7-Methoxy-1-methyl-9H-pyridine [3,4-b]indole-9-yl)propyl(E)-3-(4-methoxyphenyl) acrylate] | 325 µg/mL (≈ 755 µM) | 650 µg/mL (≈ 1510 µM) | 325 µg/mL (≈ 755 µM) | 650 µg/mL (≈ 1510 µM) | 1300 µg/mL (≈ 3020 µM) | 133.2 to 133.9 °C
3 | COc1ccc2c3ccnc(C)c3n(CCCOC(=O)/C=C/c3cc(OC)c(OC)c(OC)c3)c2c1 [Compound 3b, 3-(7-Methoxy-1-methyl-9H-pyridine [3,4-b]indole-9-yl) propyl (E)-3-(3,4,5-trimethoxyphenyl) acrylate] | 319 µg/mL (≈ 650 µM) | 638 µg/mL (≈ 1300 µM) | 319 µg/mL (≈ 650 µM) | 638 µg/mL (≈ 1300 µM) | 638 µg/mL (≈ 1300 µM) | 102.6 to 104.2 °C
4 | COc1ccc2c3ccnc(C)c3n(CCCOC(=O)/C(=C/c3cc(OC)c(OC)c(OC)c3)c3ccc(OC)c(OC)c3)c2c1 [Compound 3d, 3-(7-Methoxy-1-methyl-9H-pyridine [3,4-b]indole-9-yl) propyl (E)-2-(3,4-dimethoxyphenyl)-3-(3,4,5-trimethoxyphenyl) acrylate] | 362 µg/mL (≈ 578 µM) | 725 µg/mL (≈ 1160 µM) | 181 µg/mL (≈ 289 µM) | 725 µg/mL (≈ 1160 µM) | 362 µg/mL (≈ 578 µM) | 173.6 to 175.2 °C
5 | COc1ccc(/C=C/C(=O)OCCCCn2c3cc(OC)ccc3c3ccnc(C)c32)cc1 [Compound 4a, 4-(7-Methoxy-1-methyl-9H-pyridine [3,4-b]indole-9-yl) butyl (E)-3-(4-methoxyphenyl) acrylate] | 305 µg/mL (≈ 686 µM) | 305 µg/mL (≈ 686 µM) | 305 µg/mL (≈ 686 µM) | 152 µg/mL (≈ 343 µM) | 610 µg/mL (≈ 1370 µM) | 118.7 to 120.2 °C
6 | COc1ccc2c3ccnc(C)c3n(CCCCOC(=O)/C=C/c3cc(OC)c(OC)c(OC)c3)c2c1 [Compound 4b, 4-(7-Methoxy-1-methyl-9H-pyridine [3,4-b]indole-9-yl) butyl (E)-3-(3,4,5-trimethoxyphenyl) acrylate] | 450 µg/mL (≈ 892 µM) | 225 µg/mL (≈ 446 µM) | 112 µg/mL (≈ 223 µM) | 450 µg/mL (≈ 892 µM) | 450 µg/mL (≈ 892 µM) | 95.7 to 96.3 °C
7 | COc1ccc2c3ccnc(C)c3n(CCCCOC(=O)/C=C/c3ccccc3[N+](=O)[O-])c2c1 [Compound 4c, 4-(7-Methoxy-1-methyl-9H-pyridine [3,4-b]indole-9-yl) butyl (E)-3-(2-nitrophenyl) acrylate] | 388 µg/mL (≈ 843 µM) | 1550 µg/mL (≈ 3370 µM) | 1550 µg/mL (≈ 3370 µM) | 775 µg/mL (≈ 1690 µM) | 1550 µg/mL (≈ 3370 µM) | 130.9 to 132.2 °C
8 | COc1ccc2c3ccnc(C)c3n(CCCCOC(=O)/C(=C/c3cc(OC)c(OC)c(OC)c3)c3ccc(OC)c(OC)c3)c2c1 [Compound 4d, 4-(7-Methoxy-1-methyl-9H-pyridine [3,4-b]indole-9-yl) butyl (E)-2-(3,4-dimethoxyphenyl)-3-(3,4,5-trimethoxyphenyl) acrylate] | 212 µg/mL (≈ 332 µM) | 53.1 µg/mL (≈ 82.9 µM) | 26.6 µg/mL (≈ 41.5 µM) | 212 µg/mL (≈ 332 µM) | 106 µg/mL (≈ 166 µM) | 95.7 to 97.4 °C
9 | COc1ccc2c3ccnc(C)c3n(CCCCCOC(=O)/C=C/c3cc(OC)c(OC)c(OC)c3)c2c1 [Compound 5b, 5-(7-Methoxy-1-methyl-9H-pyridine [3,4-b]indole-9-yl) amyl (E)-3-(3,4,5-trimethoxyphenyl) acrylate] | 1140 µg/mL (≈ 2190 µM) | 2280 µg/mL (≈ 4390 µM) | 1140 µg/mL (≈ 2190 µM) | 1140 µg/mL (≈ 2190 µM) | 2280 µg/mL (≈ 4390 µM) | 103.7 to 104.7 °C
10 | COc1ccc2c3ccnc(C)c3n(CCCCCOC(=O)/C=C/c3ccccc3[N+](=O)[O-])c2c1 [Compound 5c, 5-(7-Methoxy-1-methyl-9H-pyridine [3,4-b]indole-9-yl) amyl (E)-3-(2-nitrophenyl) acrylate] | 220 µg/mL (≈ 465 µM) | 110 µg/mL (≈ 232 µM) | 110 µg/mL (≈ 232 µM) | 220 µg/mL (≈ 465 µM) | 220 µg/mL (≈ 465 µM) | 127.4 to 130 °C
11 | COc1ccc2c3ccnc(C)c3n(CCCCCOC(=O)/C(=C/c3cc(OC)c(OC)c(OC)c3)c3ccc(OC)c(OC)c3)c2c1 [Compound 5d, 5-(7-Methoxy-1-methyl-9H-pyridine [3,4-b]indole-9-yl) pentyl (E)-2-(3,4-dimethoxyphenyl)-3-(3,4,5-trimethoxyphenyl) acrylate] | 381 µg/mL (≈ 582 µM) | 95.3 µg/mL (≈ 146 µM) | 23.8 µg/mL (≈ 36.4 µM) | 762 µg/mL (≈ 1160 µM) | 95.3 µg/mL (≈ 146 µM) | 117.4 to 119.9 °C

Continued, values first:

Row | MIC [1] | MIC [2] | MIC [3] | MIC [4] | MIC [5] | melting point | Structure (SMILES)
12 | 331 µg/mL (≈ 701 µM) | 166 µg/mL (≈ 350 µM) | 82.8 µg/mL (≈ 175 µM) | 662 µg/mL (≈ 1400 µM) | 331 µg/mL (≈ 701 µM) | 88.7 to 90.4 °C | COc1ccc(/C=C/C(=O)OCCCCCCn2c3cc(OC)ccc3c3ccnc(C)c32)cc1 [Compound 6a, 6-(7-Methoxy-1-methyl-9H-pyridine [3,4-b]indole-9-yl) hexyl (E)-3-(4-methoxyphenyl) acrylate]
13 | 305 µg/mL (≈ 573 µM) | 152 µg/mL (≈ 286 µM) | 152 µg/mL (≈ 286 µM) | 305 µg/mL (≈ 573 µM) | 306 µg/mL (≈ 574 µM) | 73.7 to 73.9 °C | COc1ccc2c3ccnc(C)c3n(CCCCCCOC(=O)/C=C/c3cc(OC)c(OC)c(OC)c3)c2c1 [Compound 6b, 6-(7-Methoxy-1-methyl-9H-pyridine [3,4-b]indole-9-yl) hexyl (E)-3-(3,4,5-trimethoxyphenyl) acrylate]
14 | 750 µg/mL (≈ 1540 µM) | 750 µg/mL (≈ 1540 µM) | 375 µg/mL (≈ 769 µM) | 750 µg/mL (≈ 1540 µM) | 1500 µg/mL (≈ 3080 µM) | 117.3 to 119.9 °C | COc1ccc2c3ccnc(C)c3n(CCCCCCOC(=O)/C=C/c3ccccc3[N+](=O)[O-])c2c1 [Compound 6c, 6-(7-Methoxy-1-methyl-9H-pyridine [3,4-b]indole-9-yl) hexyl(E)-3-(2-nitrophenyl) acrylate]
15 | 212 µg/mL (≈ 318 µM) | 53.1 µg/mL (≈ 79.4 µM) | 53.1 µg/mL (≈ 79.4 µM) | 212 µg/mL (≈ 318 µM) | 212 µg/mL (≈ 318 µM) | 113.1 to 115 °C | COc1ccc2c3ccnc(C)c3n(CCCCCCOC(=O)/C(=C/c3cc(OC)c(OC)c(OC)c3)c3ccc(OC)c(OC)c3)c2c1 [Compound 6d, 6-(7-Methoxy-1-methyl-9H-pyridine [3,4-b]indole-9-yl) hexyl (E)-2-(3,4-dimethoxyphenyl)-3– (3,4,5-trimethoxyphenyl) acrylate]

From PMC8400480, “Synthesis, Antibacterial and Pharmacokinetic Evaluation of Novel Derivatives of Harmine N^9-Cinnamic Acid” (Molecules, 2021)
